Results from patent US20140163075A1, “MODULATION OF THE UBIQUITIN-PROTEASOME SYSTEM (UPS)” (NETHERLAND CANCER INSTITUTE, priority 2011, published 2014).
“Also recorded” adds a separate entry of the source. Where two headings read alike, the source gives them in different places. Residues, ends and D or L forms follow the SMILES beside them. *: point of attachment. Cbz = O=C(OCc1ccccc1)*

Tests used:
[1] = tested on: 20S and/or 26S proteasome; test: FACS-based proteasome activity assay with Me4BodipyFL-Ahx3Leu3VS activity probe in MelJuSo wild type cells; format: cell-based, human
Experimental: MelJuSo cells are washed, trypsinized and resuspended in medium containing FBS and antibiotics. After counting the concentration is adjusted to 200,000 cells per mL. Using the Wellmate microplate dispenser fitted with small bore nozzle tubing, 50 μL of cell suspension is transferred to each well of a black 384 wells plate (10,000 cells/well).
A brief spin down will prevent any liquid from being lost when the plate cover is removed. Using a Hamilton liquid handling workstation the compounds are diluted to appropriate concentrations. To “wash” the cells prior to exposure 30 μL of medium is removed from each well and is replaced with fresh medium. Then the compounds are added to the medium of the cells (final concentration 5 μM).
Using the Wellmate microplate dispenser fitted with small bore nozzle tubing, […] of probe suspension is transferred to each well resulting in a final probe concentration of 200 nM. Plates are left to incubate for two hours. Then the medium is removed and the cells are washed one time with PBS. The PBS is removed and 10 μL of trypsin is added to each well. The plates are left on a shaker for 2 minutes, placed in an incubator for 5 minutes and put on a shaker again for 2 minutes. 40 μL of PBS containing 2% FBS is added per well and the plates are put on the shaker for 2 minutes. Finally, 20 μL of PBS containing 4% formaldehyde is added and the plates are left to shake for at least 15 minutes. Plates are left on a shaker at 4° C. until they can be measured.
The FITS unit is installed on the FACS and everything is turned on. To remove air from the system and ascertain that everything works fine the system is primed twice. One by one the plates are brought down and measured. In between plates a “daily clean” cycle is performed to prevent the system from becoming clogged. After the last plate the system should be cleaned again.
Analysis is always performed per plate. Throughout the analysis the following parameters are considered: • Forward Scatter (FSC): size of the cell • Side Scatter (SSC): granularity of the cell • Number of events (#) • Probe signal (FL-1): proteasome activity • FL-2 and FL-3: signal in other channels
All DMSO samples are checked and aberrant wells (low # events, high SSC, no signal) are excluded. The average of the FL-1 from all remaining DMSO samples is used to calculate the “ratio vs. DMSO” and the FL-1 log 2 ratio of the experimental samples. This will result in DMSO samples having a FL-1 log 2 value around zero. Compounds are considered “activators” or “hits” if the FL-1 log 2 ratio is >1, and inhibitors if the FL-1 log 2 ratio is […].
(§1) Cells were washed once with phosphate buffered saline (PBS, 1 GIBCO tablet in 500 mL MilliQ). Fresh medium containing the compound at the indicated concentration was added. After the incubation time 200 nM of Me4BodipyFL-Ahx3Leu3VS activity probe was added to the cells and after two hours of incubation cells were harvested for subsequent analysis by FACS or post-lysis fluorescence detection.
Celts were washed once with PBS, trypsin was added and the plate was placed at 37° C. for 5 minutes to allow the cells to detach. When detached the cells were resuspended in PBS supplemented with 2% FBS. Cells were fixed with formaldehyde (final concentration 1% in PBS). All samples were measured using a FACSCalibur flow cytometer (BD Biosciences). […] The complete workflow used for the compound screens is described above in more detail.
The compound libraries mentioned above are screened using a FACS-based activity assay. The proteasome activity probe Me4BodipyFL-Ahx3Leu3VS activity probe is used to fluorescently label the proteasome. This probe binds irreversibly to the catalytic domains of the 20S CP. When proteasome activity is increased, increased probe binding results in an increase in fluorescent signal compared to untreated cells.

[2] = tested on: proteasome; settings: literature overview; cited from earlier work
[3] = tested on: MelJuSo wild type cells; test: Cell viability (resazurin) assay, MG132 induced cell death; settings: 1 μM, 24 hours
[4] = tested on: proteasome subunits (β2- and β5-subunits); test: SDS-PAGE in-gel fluorescence of probe-labelled proteasome subunits in MelJuSo (MEL-JUSO) cells; format: cell-based, human; settings: for activation effect on the β2- and β5-subunits: MEL-JUSO cells, p38 inhibitor panel tested at 1 and 5 μM, effect at 5 μM, FIG. 14B
Experimental: as §1
Cells were washed once with PBS, trypsin (6 well plate: 500 μL, 12 well plate: 200 μL, 24 well plate: 100 μL) was added and the plate was placed at 37° C. for 5 minutes to allow the cells to detach. When fully detached the cells were resuspended in fresh culture medium. Medium with cells was collected and after a centrifugation step (1100 ref for 2 minutes) the cells (pellet) were resuspended in cold HR buffer (50 mM Tris pH=7.4, 5 mM MgCl2, 250 mM sucrose, 1 mM DTT and 2 mM ATP). Lysis of the cells is achieved by sonification (Bioruptor, high intensity for 5 minutes with an ON/OFF cycle of 30 seconds) at 4° C. After a centrifugation step (13.600 rpm for 10 minutes) to remove cell debris the protein concentration (absorbance at 280 nm) of the supernatant is measured with a NanoDrop spectrophotometer. Fresh HR buffer without any cells was used as a blank,
Equal amounts of protein (15-20 μg) were denatured by heating the samples for 10 minutes at 71° C. in loading buffer (450 μL 4× loading buffer (Invitrogen), 45 μL β-Mercaptoethanol and 105 μl, MilliQ, 2 parts sample to 1 part loading buffer). The samples were loaded onto a 12% SDS-PAGE gel using the NuPAGE system from Invitrogen. MOPS (3-(N-morpholino)propanesulfonic acid) was used as a running buffer. Gels run at 180 V for approximately 1.5-2.0 hours and were directly imaged using the ProXPRESS 2D Proteomic imaging system (Perkin Elmer). Resolution was set at 100 μm, excitation at 480/30 and emission at 530/30. To verify protein loading, gels were stained with Coomassie Brilliant Blue. Images were analyzed using Totallab analysis software (Nonlinear Dynamics, Newcastle upon Tyne, UK) to quantify the intensity of the bands detected.
Additionally, FACS and SDS-PAGE validation experiments were done in which cells were incubated for 16 hours with 0.1, 0.5, 1.0 or 5.0 μM compound.
The proteasomal subunits are then labeled using the fluorescent […] probe, which selectively binds only to active β-subunits of the proteasome. The fluorogenic-labeled proteasome subunits were visualized directly in-gel by fluorescence scanning.
To further investigate this, MelJuSo wild type cells were incubated with 5 μM Win 62,577 for one hour. Then the medium was changed for regular medium without the compound present. After one or two hours of “washout” cells were stained with the proteasome activity probe and analyzed with SDS-PAGE followed by fluorescent scanning of the gel. The results of this experiment are depicted in FIG. 17.

[5] = biological target: p38α (Homo sapiens, UniProt Q16539); settings: literature [80, 83]; cited from earlier work
p38α, sequence (Q16539 whole entry): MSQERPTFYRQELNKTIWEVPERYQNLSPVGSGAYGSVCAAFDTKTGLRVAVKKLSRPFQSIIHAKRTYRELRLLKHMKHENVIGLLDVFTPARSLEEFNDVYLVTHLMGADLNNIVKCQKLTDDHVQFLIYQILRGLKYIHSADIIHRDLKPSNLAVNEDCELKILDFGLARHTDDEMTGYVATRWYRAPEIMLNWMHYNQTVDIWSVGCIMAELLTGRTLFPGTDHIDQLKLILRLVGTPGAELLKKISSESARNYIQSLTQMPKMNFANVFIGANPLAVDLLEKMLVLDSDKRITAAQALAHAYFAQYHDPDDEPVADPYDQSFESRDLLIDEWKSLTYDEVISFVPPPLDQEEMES

[6] = tested on: proteasome; settings: literature overview; cited from earlier work; remark: listed apart in the source
[7] = LOPAC and JHCCL library screen, 5 μM compound, 16 hours, 200 nM probe two hours

CCCn1c(=O)c2[nH]c(C3CCCC3)nc2n(CCC)c1=O [DPCPX, 8-cyclopenthyl-1,3-dipropylxanthine]
time dependence of proteasome activation (FL-1 log 2 ratio) ([1]; 0.1, 0.5, 1.0 or 5.0 μM compound for 4, 16, 24 or 48 hours): both concentration and time dependent; also recorded: displayed an increase in activation over time | screening hit (FL-1 log 2 ratio >1.00 and no exclusion criterion met) [1, 7]: identified as hits

CCCCC/C=C\C/C=C\CCCCCCCC(=O)O [Linoleic acid]
Results: purified proteasome/lysate [2]: Increases all 3 proteasome

CC(C)C[C@@H](C=O)NC(=O)[C@H](CC(C)C)NC(=O)[C@H](CC(C)C)NC(=O)OCc1ccccc1 [MG132] (Cbz-Leu-Leu-Leu-aldehyde)
fluorescent probe signal compared to untreated cells [1]: reduces the signal compared to untreated cells | cytotoxicity [3]: highly cytotoxic

CCCCCCCC/C=C\CCCCCCCC(=O)O [Oleic acid]
Results: purified proteasome/lysate [2]: Increases all 3 proteasome

COc1cccc(-c2cc(=O)c3ccccc3o2)c1N [PD98059]
activation effect on the β2- and β5-subunits [4]: most pronounced; also recorded: pronounced activation effect | activation effect on the β2- and β5-subunits ([4]; listed as PD98052): seems to enhance the activity

Oc1ccc(-c2nc(-c3ccc(F)cc3)c(-c3ccncc3)[nH]2)cc1 [SB202190]
activation effect on the β2- and β5-subunits [4]: pronounced activation effect | activation effect on the β2- and β5-subunits ([4]; listed as SB202150): most pronounced | inhibition of p38α isoform [5]: inhibits both the p38α and p38β-isoforms

CCCCCCCCCCCCOS(=O)(=O)[O-].[Na+] [SDS]
Results: purified proteasome/lysate [2]: Increases all 3 proteasome

Fc1ccc(-c2nc3n(c2-c2ccncc2)CCS3)cc1 [SKF86002]
inhibition of p38α isoform [5]: inhibits only p38α

Cc1cc(C(=O)CN2CCCC2)c(C)n1-c1ccc(F)cc1 [USP14 inhibitor, IU1]
FL-1 log 2 score compared to the compounds identified in the screen ([1]; 5 μM, 16 hours, triplicate): scores relatively low | Results: purified proteasome/lysate [2]: Increases all 3 proteasome | Results: live cells [6]: Increases all 3

C#C[C@]1(O)CC[C@H]2C3CCC4=Cc5nc6nc7ccccc7n6cc5C[C@]4(C)C3CC[C@@]21C (some centres unmarked) [Win 62,577]
concentration dependence of proteasome activation (FL-1 signal) [1]: dose-dependent increase of the fluorescent signal | screening hit (FL-1 log 2 ratio >1.00 and no exclusion criterion met) [1]: identified as hits | time dependence of proteasome activation (FL-1 log 2 ratio) [1]: mild decrease after 48 hours of incubation | probe signal after one hour of incubation, no washout [4]: strong activation; also recorded: clear increase in signal | probe signal after one hour of washout [4]: still more than the untreated control but less when compared to the no washout | probe signal after two hours of washout [4]: disappeared | timeframe of onset and termination of increasing proteasome activity [4]: 1 to 2 h

CC/C=C\C/C=C\C/C=C\CCCCCCCC(=O)O [alpha linolenic acid]
Results: purified proteasome/lysate [2]: Increases all 3 proteasome

CN1[C@@H]2CC[C@H]1C[C@@H](OC(c1ccccc1)c1ccccc1)C2 [benztropin]
screening hit (FL-1 log 2 ratio >1.00 and no exclusion criterion met) [1, 7]: initially identified in the JHCCL screen

OCCN(CCO)c1nc(N2CCCCC2)c2nc(N(CCO)CCO)nc(N3CCCCC3)c2n1 [dipyrimadole, Dipyrimadole]
screening hit (FL-1 log 2 ratio >1.00 and no exclusion criterion met) [1, 7]: identified as hits in both

CN(C)CCC[C@@]1(c2ccc(F)cc2)OCc2cc(C#N)ccc21 [escitalopram]
screening hit (FL-1 log 2 ratio >1.00 and no exclusion criterion met) [1, 7]: initially identified in the JHCCL screen

CC(C)OC(=O)C(C)(C)Oc1ccc(C(=O)c2ccc(Cl)cc2)cc1 [fenofibrate, Fenofibrate]
screening hit (FL-1 log 2 ratio >1.00 and no exclusion criterion met) [1, 7]: identified as hits

CN(C)C(=O)C(CCN1CCC(O)(c2ccc(Cl)cc2)CC1)(c1ccccc1)c1ccccc1 [loperamide, Loperamide]
screening hit (FL-1 log 2 ratio >1.00 and no exclusion criterion met) [1]: identified as hits

CN1C[C@H](CNC(=O)OCc2ccccc2)C[C@@H]2c3cccc4c3c(cn4C)C[C@H]21 [metergoline, Metergoline]
screening hit (FL-1 log 2 ratio >1.00 and no exclusion criterion met) [1, 7]: identified as hits

CC#C[C@]1(O)CC[C@H]2[C@@H]3CCC4=CC(=O)CCC4=C3[C@@H](c3ccc(N(C)C)cc3)C[C@@]21C [mifepristone, Mifepristone]
screening hit (FL-1 log 2 ratio >1.00 and no exclusion criterion met) [1, 7]: identified as hits

O=c1[nH]c2ccccc2n1C1CCN(CCCC(c2ccc(F)cc2)c2ccc(F)cc2)CC1 [pimozide, Pimozide]
screening hit (FL-1 log 2 ratio >1.00 and no exclusion criterion met) [1, 7]: identified as hits

Nc1ccc2cc3ccc(N)cc3nc2c1 [proflavine, Proflavine]
screening hit (FL-1 log 2 ratio >1.00 and no exclusion criterion met) [1, 7]: identified as hits

COc1ccc(CCN(C)CCCC(C#N)(c2ccc(OC)c(OC)c2)C(C)C)cc1OC (centres unmarked) [verapamil, Verapamil]
screening hit (FL-1 log 2 ratio >1.00 and no exclusion criterion met) [1]: identified as hits in both

Cardiolipin
Results: purified proteasome/lysate [2]: Increases mainly

Ceramides
Results: purified proteasome/lysate [2]: Increases mainly

Lysophosphatidylinositol
Results: purified proteasome/lysate [2]: Increases mainly

Medroxyprogesterone
screening hit (FL-1 log 2 ratio >1.00 and no exclusion criterion met) [1]: initially identified in the JHCCL screen

Methylbenzethonium
screening hit (FL-1 log 2 ratio >1.00 and no exclusion criterion met) [1, 7]: identified as hits

Polyarginine
Results: purified proteasome/lysate [2]: Increases mainly

Polylysine
Results: purified proteasome/lysate [2]: Increases mainly
